Laboratory results taken from patent publication US20080227780A1, “SOLUBLE EPOXIDE HYDROLASE INHIBITORS” (Arete Therapeutics, Inc., priority 2007, published 2008).

System: soluble epoxide hydrolase (sEH)
Assay: Fluorescent assay for soluble epoxide hydrolase (CMNPC substrate), percent inhibition at the recited concentration
Assay type: biochemical
Summary of the method: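 Purified recombinant baculovirus-expressed sEH in 25 mM Bis/Tris HCl pH 7.0 with 0.1 mg/mL BSA; inhibitor serially diluted and preincubated with enzyme 5 min at 30 °C. Reaction started with 5 μM (final) substrate; fluorescence (ex 330/em 465 nm) read every 30 s for 10 min, and velocities give % inhibition.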

Structure (SMILES): CC(=O)N1CCC(NC(=O)NC23CC4CC(CC(O)(C4)C2)C3)CC1 [Compound 3-2, 1-(1-acetylpiperidin-4-yl)-3-(3-hydroxyadamant-1-yl)urea]
- % inh. (Inhibition Conc. 5000 nM): 67%

Structure (SMILES): COc1ccc(S(=O)(=O)N2CCC(NC(=O)NC34CC5CC(CC(C5)C3)C4)CC2)cc1 [Compound 7-1, 1-(1-adamantyl)-3-(1-(4-methoxyphenylsulfonyl)-piperidin-4-yl)urea]
- % inh. (Inhibition Conc. 50 nM): 99%

Structure (SMILES): CC(=O)N1CCC(NC(=O)NC2CCCCCCC2)CC1 [Compound 7-84, 1-(1-acetylpiperidin-4-yl)-3-cyclooctylurea]
- % inh. (Inhibition Conc. 200 nM): 92%

Structure (SMILES): CC(=O)N1CCC(NC(=O)Nc2ccc(N(C)C)cc2)CC1 [Compound 7-52, 1-(1-acetylpiperidin-4-yl)-3-(4-(dimethylamino)phenyl)urea]
- % inh. (Inhibition Conc. 2000 nM): 44%

Structure (SMILES): Cc1ccccc1S(=O)(=O)N1CCC(NC(=O)NC23CC4CC(CC(C4)C2)C3)CC1 [Compound 7-33, 1-adamantyl-3-(1-(o-tolylsulfonyl)piperidin-4-yl)urea]
- % inh. (Inhibition Conc. 50 nM): 99%

Structure (SMILES): Cc1cccc(Cl)c1S(=O)(=O)N1CCC(NC(=O)NC23CC4CC(CC(C4)C2)C3)CC1 [Compound 7-35, 1-(1-(2-chloro-6-methylphenylsulfonyl)piperidin-4-yl)-3-adamantylurea]
- % inh. (Inhibition Conc. 50 nM): 98%

Structure (SMILES): O=C(Nc1ccc(C(F)(F)F)cc1)NC1CCN(c2ccc(C(F)(F)F)cn2)CC1 [Compound 2-1]
- % inh. (Inhibition Conc. 50 nM): 13%

Structure (SMILES): O=C(NC1CCN(S(=O)(=O)c2ccc3ccccc3c2)CC1)NC12CC3CC(CC(C3)C1)C2 [Compound 7-25, 1-adamantyl-3-(1-(naphthalen-2-ylsulfonyl)piperidin-4-yl)urea]
- % inh. (Inhibition Conc. 50 nM): 99%

Structure (SMILES): CC(C)(C)C(=O)N1CCC(NC(=O)Nc2ccc(C#N)cc2)CC1 [Compound 7-81, 1-(4-cyanophenyl)-3-(1-pivaloylpiperidin-4-yl)urea]
- % inh. (Inhibition Conc. 200 nM): 91%

Structure (SMILES): O=C(NC1CCCCC1)NC1CCN(S(=O)(=O)c2cccc(C(F)(F)F)c2)CC1 [Compound 7-44, 1-cyclohexyl-3-(1-(3-(trifluoromethyl)phenylsulfonyl)piperidin-4-yl)urea]
- % inh. (Inhibition Conc. 50 nM): 81%

Structure (SMILES): CC(=O)N1CCC(NC(=O)Nc2ccncc2)CC1 [Compound 6-7, 1-(1-acetyl-piperidin-4-yl)-3-(pyridin-4-yl)urea]
- % inh. (Inhibition Conc. 50000 nM): 53%

Structure (SMILES): CCC1CCC(NC(=O)NC2CCN(C(C)=O)CC2)CC1 (centres unmarked) [Compound 7-4, 1-(1-acetylpiperidin-4-yl)-3-(4-ethylcyclohexyl)urea]
- % inh. (Inhibition Conc. 50 nM): 72%

Structure (SMILES): Cc1nc2ccc(NC(=O)NC3CCN(C(=O)OC(C)(C)C)CC3)cc2s1 [Compound 6-14, tert-butyl 4-(3-(2-methylbenzo[d]thiazol-6-yl)ureido)piperidine-1-carboxylate]
- % inh. (Inhibition Conc. 200 nM): 77%

Structure (SMILES): CC(C)(C)OC(=O)N1CCC(NC(=O)Nc2ccc(N3CCOCC3)cc2)CC1 [Compound 7-86, tert-butyl 4-(3-(4-morpholinophenyl)ureido)piperidine-1-carboxylate]
- % inh. (Inhibition Conc. 2000 nM): 90%

Structure (SMILES): CC(C)OC(=O)N1CCC(NC(=O)Nc2ccc(OC(F)(F)F)cc2)CC1 [Compound 7-22, isopropyl 4-(3-(4-(trifluoromethoxy)phenyl)ureido)piperidine-1-carboxylate]
- % inh. (Inhibition Conc. 50 nM): 99%

Structure (SMILES): CNS(=O)(=O)c1ccc(C(=O)N2CCC(NC(=O)Nc3ccc(F)cc3)CC2)cc1 [Compound 4-11, 4-(4-(3-(4-fluorophenyl)ureido)piperidine-1-carbonyl)-N-methylbenzene-sulfonamide]
- % inh. (Inhibition Conc. 500 nM): 94%

Structure (SMILES): O=C(Nc1ccc(C(F)(F)F)cc1)NC1CCN(c2nccs2)CC1 [Compound 2-8, 1-(1-(thiazol-2-yl)piperidin-4-yl)-3-(4-(trifluoromethyl)phenyl)urea]
- % inh. (Inhibition Conc. 200 nM): 98%

Structure (SMILES): CC(=O)N1CCC(NC(=O)Nc2ccc3ncccc3c2)CC1 [Compound 6-4, 1-(1-acetylpiperidin-4-yl)-3-(quinolin-6-yl)urea]
- % inh. (Inhibition Conc. 500 nM): 70%

Structure (SMILES): CC(=O)N1CCC(NC(=O)Nc2ccc3c(c2)CCC3)CC1 [Compound 6-6, 1-(1-acetyl-piperidin-4-yl)-3-(2,3-dihydro-1H-inden-5-yl)urea]
- % inh. (Inhibition Conc. 500 nM): 93%

Structure (SMILES): CC(=O)N1CCC(NC(=O)NC23CC4(F)CC(F)(CC(F)(C4)C2)C3)CC1 [Compound 3-1, 1-(1-acetylpiperidin-4-yl)-3-(3,5,7-trifluoroadamant-1-yl)urea]
- % inh. (Inhibition Conc. 500 nM): 70%

Structure (SMILES): CC(C)(C)C(=O)N1CCC(NC(=O)Nc2ccc(S(C)(=O)=O)cc2)CC1 [Compound 7-70, 1-(4-(methylsulfonyl)phenyl)-3-(1-pivaloylpiperidin-4-yl)urea]
- % inh. (Inhibition Conc. 2000 nM): 90%

Structure (SMILES): CC(=O)N1CCC(NC(=O)Nc2cccnc2)CC1 [Compound 6-12, 1-(1-acetylpiperidin-4-yl)-3-(pyridin-3-yl)urea]
- % inh. (Inhibition Conc. 2000 nM): 40%

Structure (SMILES): O=C(Nc1ccc(C(F)(F)F)cc1)NC1CCN(c2ncccc2C(F)(F)F)CC1 [Compound 2-2]
- % inh. (Inhibition Conc. 50 nM): 97%

Structure (SMILES): CC(=O)N1CCC(NC(=O)NC2CCC2)CC1 [Compound 7-63, 1-(1-acetylpiperidin-4-yl)-3-cyclobutylurea]
- % inh. (Inhibition Conc. 2000 nM): 76%

Structure (SMILES): CC(=O)N1CCC(NC(=O)NC2CCC3CCCCC3C2)CC1 (centres unmarked) [Compound 7-5, 1-(1-acetylpiperidin-4-yl)-3-(decahydronaphthalen-2-yl)urea]
- % inh. (Inhibition Conc. 50 nM): 93%

Structure (SMILES): CCOC(=O)N1CCC(NC(=O)Nc2ccc(C(F)(F)F)cc2)CC1 [Compound 7-15, ethyl 4-(3-(4-(trifluoromethyl)phenyl)ureido)piperidine-1-carboxylate]
- % inh. (Inhibition Conc. 50 nM): 93%

Structure (SMILES): COCC(=O)N1CCC(NC(=O)NC23CC4CC(CC(C4)C2)C3)CC1 [Compound 7-76, 1-adamantyl-3-(1-(2-methoxyacetyl)piperidin-4-yl)urea]
- % inh. (Inhibition Conc. 200 nM): 94%

Structure (SMILES): O=C(NC1CCN(c2ccccc2)CC1)NC12CC3CC(CC(C3)C1)C2 [Compound 2-3, 1-(1-adamantyl)-3-(1-phenylpiperidin-4-yl)urea]
- % inh. (Inhibition Conc. 50 nM): 98%

Structure (SMILES): CC(=O)N1CCC(NC(=O)N2CCC(NC(=O)NC34CC5CC(CC(C5)C3)C4)CC2)CC1 [Compound 7-57, N-(1-acetylpiperidin-4-yl)-4-(3-adamantylureido)piperidine-1-carboxamide]
- % inh. (Inhibition Conc. 200 nM): 90%

Structure (SMILES): CC(=O)N1CCC(NC(=O)NCCCCCCCCO)CC1 [Compound 1-6, 1-(1-acetylpiperidin-4-yl)-3-(8-hydroxyoctyl)urea]
- % inh. (Inhibition Conc. 500 nM): 85%

Structure (SMILES): CNS(=O)(=O)c1cccc(C(=O)N2CCC(NC(=O)Nc3ccc(C(F)(F)F)cc3)CC2)c1 [Compound 4-9, N-methyl-3-(4-(3-(4-(trifluoromethyl)phenyl)ureido)piperidine-1-carbonyl)benzene-sulfonamide]
- % inh. (Inhibition Conc. 50 nM): 99%

Structure (SMILES): CCCOc1ccc(NC(=O)NC2CCN(C(C)=O)CC2)cc1 [Compound 7-11, 1-(1-acetylpiperidin-4-yl)-3-(4-propoxyphenyl)urea]
- % inh. (Inhibition Conc. 5000 nM): 94%

Structure (SMILES): O=C(Nc1ccc(OC(F)(F)F)cc1)NC1CCN(c2ccc(F)cc2)CC1 [Compound 2-11, 1-(1-(4-fluorophenyl)piperidin-4-yl)-3-(4-(trifluoromethoxy)phenyl)urea]
- % inh. (Inhibition Conc. 2000 nM): 100%

Structure (SMILES): CC(=O)N1CCC(NC(=O)NC23CC4CC(C2)C(F)C(C4)C3)CC1 (centres unmarked) [Compound 3-11, 1-(1-acetylpiperidin-4-yl)-3-(4-fluoroadamantyl)urea]
- % inh. (Inhibition Conc. 200 nM): 88%

Structure (SMILES): CC(C)OC(=O)N1CCC(NC(=O)NC23CC4CC(CC(C4)C2)C3)CC1 [Compound 7-23, isopropyl 4-(3-(1-adamantyl)ureido)piperidine-1-carboxylate]
- % inh. (Inhibition Conc. 50 nM): 93%
